How the values were obtained:
NF-κB [1] = assay: NF-κB ligand screen in pNGL-expressing RAW264.7 macrophages; format: cell-based, murine; conditions: recombinant VCAN 1 nM, compared with LPS 1 μg/mL
From the text: (§1) FIG. 4. Tumor-secreted versican drives macrophage IKKβ, metastasis, and is a cancer biomarker. (A-E) Kras-mutant and wild-type cancer cell RNA and supernatants were subjected to microarray and LC-MSMS analyses, respectively. Shown are experimental design (A), top-20 over-represented transcripts (B) and secretory proteins (C), and Vcan/VCAN mRNA/protein expression (D, E). n=2-3/group; P, probability, two-way ANOVA; Bold letters, false discovery rate (FDR) q<0.05 compared with Kras-wild-type cells, two-stage linear step-up procedure of Benjamini, Hochberg, and Yekutieli. (F, G) Representative bioluminescent images (F) and data summary (G) from pNGL RAW264.7 cells exposed to lipopolysaccharide (LPS; 1 μg/mL) or recombinant proteins (1-2 nM). n=5/group; P, probability, two-way ANOVA; ****, P<0.0001 compared with other groups, Bonferroni post-tests. (H) Immunoblots of mouse BMDM exposed to VCAN. n=5/group. (I-M) LLC cells stably expressing control (shC) and anti-Vcan (shVcan) shRNA were validated and injected intrapleurally into NGL mice. […]
Mice were imaged for NF-κB reporter bioluminescent signal daily starting at day 10 post-tumor cell injection until sacrifice. […] Data were analyzed using Living Image v.4.2 (Perkin-Elmer, Waltham, MA) as described previously (9, 10, 15, 15, 22, 29, 39). […]

IKKβ = assay: immunoblots of mouse BMDM exposed to VCAN; format: cell-based; conditions: primary murine BMDM, recombinant human versican 1 nM
From the text: as §1, with “mice. Shown are immunoblots (I), Vcan mRNA expression (J), and data summaries (K, L) and representative photographic and bioluminescent images (M) taken 14 days post-tumor cells. (I, J) n=5/group; (K-M) n=16/group; P, probability, unpaired Student's t-test.” for “mice.”

[2] = system: non-small cell lung cancer (NSCLC); conditions: second/third-line with docetaxel, irrespective of histologic subtype and driver mutation; cited from earlier work
incident lung cancer = conditions: exploratory analysis of CANTOS; cited from earlier work
NF-κB [3] = assay: NF-κB reporter response of pNGL RAW264.7 macrophages to tumor-conditioned media with bortezomib pre-treatment; format: cell-based, murine; conditions: pre-treatment 1 μg/mL (3 μM) for 1 hour
Procedure: FIG. 3. Tumor-secreted factors drive IKKβ activation, differentiation, and IL-1β secretion in macrophages. (A) Color-coded cancer cells with Kras mutation status. (B-E) Bioluminescent images with pseudocolor scale (B, E), immunoblots (C), and data summaries (D, E) from exposure of RAW264.7 macrophages stably expressing pNGL (B-D) and murine bone marrow derived macrophages (BMDM) obtained from NGL mice after one-week 100 ng/ml M-CSF exposure (E) to cell-free tumor-conditioned media or DMEM (white boxes) with or without bortezomib pre-treatment (1 μg/mL˜3 µM for 1 hour). (D, E) n=5/group; P, probability, one or two-way ANOVA; **** and ####, P<0.0001 compared with other groups or saline-treated cells, respectively, Bonferroni post-tests. (F) Flow cytometry-assessed differentiation marker expression of murine bone marrow cells before (day 0) and after (day 7) one-week M-CSF exposure. (G) Microarray strategy and top-five differentially expressed genes (ΔGE) of murine BMDM compared with cancer cells (ΔGE1) and of tumor-conditioned BMDM compared with naïve BMDM (ΔGE2). n=5/group; P, probability, one-way ANOVA. (H) Bioluminescent images and data summary of NGL, NGL; Tnf−/−, and NGL;Il1b−/− mice 14 days post-pleural injection of LLC cells. n=13/group; P, probability, one-way ANOVA; ** and ***, P<0.01 and P<0.001, respectively, compared with NGL mice, Bonferroni post-tests. […]

VCAN: recombinant human active versican, TLR2 ligand glycoprotein
macrophage NF-κB-driven transcription (NF-κB [1]): potently activates macrophage NF-κB-driven transcription to the same degree as the TLR4 ligand lipopolysaccharide (LPS)
IKKβ induction (IKKβ): induced IKKβ in primary murine BMDM

canakinumab: anti-IL-1β neutralizing monoclonal antibody
trial outcome [2]: negative
effect against incident lung cancer (incident lung cancer): strong protective effects against incident lung cancer

CC(C)C[C@H](NC(=O)[C@H](Cc1ccccc1)NC(=O)c1cnccn1)B(O)O [bortezomib]
NF-κB response to KrasMUT tumor-conditioned media (NF-κB [3]): attenuated
